Usually IC50 stands for the point on the concentration scale where inhibition reaches its midpoint.

In the assay the target is T1, IRAK4 (Homo sapiens, UniProt Q9NWZ3).
T1 sequence (Q9NWZ3 1-460): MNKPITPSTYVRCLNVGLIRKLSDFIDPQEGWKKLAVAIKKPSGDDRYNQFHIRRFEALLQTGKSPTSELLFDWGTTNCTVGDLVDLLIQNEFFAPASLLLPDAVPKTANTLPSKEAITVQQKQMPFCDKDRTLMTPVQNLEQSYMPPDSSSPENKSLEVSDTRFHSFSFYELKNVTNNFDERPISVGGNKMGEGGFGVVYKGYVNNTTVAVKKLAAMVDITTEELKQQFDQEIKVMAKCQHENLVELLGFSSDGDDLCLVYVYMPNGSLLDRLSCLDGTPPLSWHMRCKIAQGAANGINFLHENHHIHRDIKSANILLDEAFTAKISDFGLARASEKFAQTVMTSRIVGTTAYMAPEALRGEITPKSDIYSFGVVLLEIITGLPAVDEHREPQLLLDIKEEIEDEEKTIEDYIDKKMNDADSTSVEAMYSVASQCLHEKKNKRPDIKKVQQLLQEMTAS
Put plainly: IRAK4 Inhibition Assay. It is filed as biochemical. The settings on record: ATP 500 μM; FL-IPTSPITTTYFFFKKK peptide 1.5 μM; IRAK4 0.6 nM; 60 min room temperature; Caliper LabChip 3000. Here is the method: The assays were performed in U-bottom 384-well plates. The final assay volume was 30 μL prepared from 15 μL additions of enzyme and substrates (fluoresceinated peptide and ATP) and test compounds in assay buffer (20 mM HEPES pH 7.2, 10 mM MgCl2, 0.015% Brij35 and 4 mM DTT). The reaction was initiated by the combination of IRAK4 with substrates and test compounds. The reaction was incubated at room temperature for 60 min. and terminated by adding 45 μL of 35 mM EDTA to each sample. The reaction mixture was analyzed on the Caliper LabChip 3000 (Caliper, Hopkinton, Mass.) by electrophoretic separation of the fluorescent substrate and phosphorylated product. Inhibition data were calculated by comparison to no enzyme control reactions for 100% inhibition and vehicle-only reactions for 0% inhibition. The final concentrations of reagents in the assays are ATP, 500 μM; FL-IPTSPITTTYFFFKKK peptide 1.5 μM; IRAK4, 0.6 nM; and DMSO, 1.6%.
As for `CC(C)Nc1cc(Nc2ccc(C#N)cc2)ncc1-c1nnc(NC[C@@H](F)CO)o1` [Example 115, (R)-4-((5-(5-((2-Fluoro-3-hydroxypropyl)amino)-1,3,4-oxadiazol-2-yl)-4-(isopropylamino)pyridin-2-yl)amino)benzonitrile], the IC50 was 0.0229 µM.

On to `CC(C)Nc1cc(Nc2ccc3nsnc3c2)ncc1-c1nnc(C(=O)N2CC[C@@H](O)C2)s1` [Example 3, (R)-(5-(6-(Benzo[c][1,2,5]thiadiazol-5-ylamino)-4-(isopropylamino)pyridin-3-yl)-1,3,4-thiadiazol-2-yl)-(3-hydroxypyrrolidin-1-yl)methanone], for which the 50% inhibitory concentration (IC50) stood at 0.0025 µM.

Turning to `Cc1oc(-c2cnc(Nc3ccc4ncsc4c3)cc2NC(C)C)nc1NC(=O)OC(C)(C)C` [Example 106, tert-butyl 2-(6-(benzo[d]thiazol-6-ylamino)-4-(isopropylamino)pyridin-3-yl)-5-methyloxazol-4-ylcarbamate], the half-inhibitory concentration (IC50) was 0.875 µM.

Take `COc1cccc(-c2cnc(Nc3ccc4ncsc4c3)cc2NC(C)C)n1` [Example 176, N6′-(Benzo[d]thiazol-6-yl)-N4′-isopropyl-6-methoxy-[2,3′-bipyridine]-4′,6′-diamine]: the IC50 was 0.616 µM.

For `CC(C)Nc1cc(Nc2ccc3ncsc3c2)ncc1-c1nnc(-c2ccc(F)c(S(=O)(=O)NC(C)(C)C)c2)o1` [Example 143, 5-(5-(6-(Benzo[d]thiazol-6-ylamino)-4-(isopropylamino)pyridin-3-yl)-1,3,4-oxadiazol-2-yl)-N-(tert-butyl)-2-fluorobenzenesulfonamide], the half-inhibitory concentration (IC50) is 0.676 µM.

With `CNC(=O)c1ccc(Nc2cc(Nc3ccc4ncsc4c3)ncc2-c2nnc(C(=O)N3CC[C@@H](O)C3)s2)cc1` [Example 19, (R)-4-((2-(benzo[d]thiazol-6-ylamino)-5-(5-(3-hydroxypyrrolidine-1-carbonyl)-1,3,4-thiadiazol-2-yl)pyridin-4-yl)amino)-N-methylbenzamide], the concentration for half-maximal inhibition (IC50) was determined as 0.0032 µM.

Take `CC(C)Nc1cc(Nc2ccc3ncsc3c2)ncc1-c1nc(C(=O)NC[C@H](O)c2ccccc2)cs1` [Example 81, (R)-2-(6-(Benzo[d]thiazol-6-ylamino)-4-(isopropylamino)pyridin-3-yl)-N-(2-hydroxy-2-phenylethyl)thiazole-4-carboxamide]: the IC50 was found to be 0.026 µM.

On to `CC(=O)NC1CCN(C(=O)c2nnc(-c3cnc(Nc4ccc5ncsc5c4)cc3NC(C)C)s2)C1` (centres unmarked) [Example 8, N-(1-(5-(6-(benzo[d]thiazol-6-ylamino)-4-(isopropylamino)pyridin-3-yl)-1,3,4-thiadiazole-2-carbonyl)pyrrolidin-3-yl)acetamide], for which the IC50 amounted to 0.0033 µM.

Take `CC(C)Nc1cc(Nc2ccc3ncsc3c2)ncc1-c1ccc2cn[nH]c2c1` [Example 177, N2-(Benzo[d]thiazol-6-yl)-5-(1H-indazol-6-yl)-N4-isopropylpyridine-2,4-diamine]: the half-inhibitory concentration (IC50) amounted to 0.813 µM.

With `CC(C)Nc1cc(Nc2ccc3ncsc3c2)ncc1-c1nnc(N2CCN(CCO)CC2)o1` [Example 129, 2-(4-(5-(6-(Benzo[d]thiazol-6-ylamino)-4-(isopropylamino)pyridin-3-yl)-1,3,4-oxadiazol-2-yl)piperazin-1-yl)ethanol], the half-inhibitory concentration (IC50) stood at 0.0254 µM.

For the compound `CC(C)Nc1cc(Nc2ccc3ncsc3c2)ncc1-c1nc(C(=O)N2CCN(c3ccc(F)cc3F)CC2)cs1` [Example 31, (2-(6-(Benzo[d]thiazol-6-ylamino)-4-(isopropylamino)pyridin-3-yl)thiazol-4-yl)(4-(2,4-difluorophenyl)piperazin-1-yl)methanone], the IC50 came to 0.764 µM.

`CC(C)Nc1cc(Nc2ccc3ncsc3c2)ncc1-c1nnc(C(=O)N2CCC(N)CC2)o1` [Example 161, (4-Aminopiperidin-1-yl)(5-(6-(benzo[d]thiazol-6-ylamino)-4-(isopropylamino)pyridin-3-yl)-1,3,4-oxadiazol-2-yl)methanone]: the 50% inhibitory concentration (IC50) came to 0.023 µM.

In the case of `NC(=O)c1nnc(-c2cnc(Nc3ccc4ncsc4c3)cc2N[C@H](CO)Cc2ccccc2)o1` [Example 152, (S)-5-(6-(Benzo[d]thiazol-6-ylamino)-4-((1-hydroxy-3-phenylpropan-2-yl)amino)pyridin-3-yl)-1,3,4-oxadiazole-2-carboxamide], the concentration for half-maximal inhibition (IC50) was 0.0245 µM.

Consider `CC(C)Nc1cc(Nc2ccc3ncsc3c2)ncc1-c1nnc(-c2cccc(C(N)=O)c2)o1` [Example 148, 3-(5-(6-(Benzo[d]thiazol-6-ylamino)-4-(isopropylamino)pyridin-3-yl)-1,3,4-oxadiazol-2-yl)benzamide], for which the IC50 stood at 0.564 µM.

As for `CC(C)Nc1cc(Nc2ccc3ncsc3c2)ncc1-c1nc(C(=O)N2CCC3(CC2)C(=O)NCN3c2ccccc2)cs1` [Example 48, 8-(2-(6-(Benzo[d]thiazol-6-ylamino)-4-(isopropylamino)pyridin-3-yl)thiazole-4-carbonyl)-1-phenyl-1,3,8-triazaspiro[4.5]decan-4-one], the IC50 is 0.576 µM.

As to `CC(C)Nc1cc(Nc2ccc3ncsc3c2)ncc1-c1nnc(C(=O)N2CCC(O)C2)s1` (single isomer, unassigned) [Example 6, (5-(6-(Benzo[d]thiazol-6-ylamino)-4-(isopropylamino)pyridin-3-yl)-1,3,4-thiadiazol-2-yl)(3-hydroxypyrrolidin-1-yl)methanone], the IC50 came out at 0.0028 µM.

Turning to `CC(C)Nc1cc(Nc2ccc3ncsc3c2)ncc1-c1nc(C(=O)NCC2CCCO2)cs1` (centres unmarked) [Example 59, 2-(6-(Benzo[d]thiazol-6-ylamino)-4-(isopropylamino)pyridin-3-yl)-N-((tetrahydrofuran-2-yl)methyl)thiazole-4-carboxamide], the IC50 worked out at 0.024 µM.

For the compound `CC(C)Nc1cc(Nc2ccc3ncsc3c2)ncc1-c1nnc(C(=O)N2CCC(O)C2)s1` (single isomer, unassigned) [Example 7, (5-(6-(Benzo[d]thiazol-6-ylamino)-4-(isopropylamino)pyridin-3-yl)-1,3,4-thiadiazol-2-yl)(3-hydroxypyrrolidin-1-yl)methanone], the IC50 was found to be 0.0032 µM.

On to `CC(C)Nc1cc(Nc2ccc3ncsc3c2)ncc1-c1nc(C(=O)NCCCN2CCCC2)cs1` [Example 82, 2-(6-(Benzo[d]thiazol-6-ylamino)-4-(isopropylamino)pyridin-3-yl)-N-(3-(pyrrolidin-1-yl)propyl)thiazole-4-carboxamide], for which the IC50 is 0.0031 µM.

As to `CC(C)Nc1cc(Nc2ccc3ncsc3c2)ncc1-c1nnc(NC2CNC2)o1` [Example 128, 5-(5-(Azetidin-3-ylamino)-1,3,4-oxadiazol-2-yl)-N2-(benzo[d]thiazol-6-yl)-N4-isopropylpyridine-2,4-diamine], the IC50 came to 0.0264 µM.

As for `Cc1sc(-c2cnc(Nc3ccc4ncsc4c3)cc2NC(C)C)nc1C(=O)NCCCN1CCCCC1` [Example 25, 2-(6-(benzo[d]thiazol-6-ylamino)-4-(isopropylamino)pyridin-3-yl)-5-methyl-N-(3-(piperidin-1-yl)propyl)thiazole-4-carboxamide], the IC50 came out at 0.0027 µM.

Consider `CC(C)Nc1cc(Nc2ccc3ncsc3c2)ncc1-c1nc(C(N)=O)co1` [Example 108, 2-(6-(Benzo[d]thiazol-6-ylamino)-4-(isopropylamino)pyridin-3-yl)oxazole-4-carboxamide], for which the concentration for half-maximal inhibition (IC50) came to 0.0027 µM.

For `CC(C)Nc1cc(Nc2ccc3ncsc3c2)ncc1-c1nnc(N2CCN(CCN3CCOCC3)CC2)o1` [Example 130, N2-(benzo[d]thiazol-6-yl)-N4-isopropyl-5-(5-(4-(2-morpholinoethyl)piperazin-1-yl)-1,3,4-oxadiazol-2-yl)pyridine-2,4-diamine], the IC50 came to 0.0221 µM.

On to `CCOC(=O)c1nc(-c2cnc(Nc3ccc4ncsc4c3)cc2NC(C)C)sc1C` [Example 23, Ethyl 2-(6-(benzo[d]thiazol-6-ylamino)-4-(isopropylamino)pyridin-3-yl)-5-methylthiazole-4-carboxylate], for which the IC50 amounted to 0.961 µM.

With `CC(C)Nc1cc(Nc2ccc3ncsc3c2)ncc1-c1nc(C(=O)NCC2CCCCC2)cs1` [Example 56, 2-(6-(Benzo[d]thiazol-6-ylamino)-4-(isopropylamino)pyridin-3-yl)-N-(cyclohexylmethyl)thiazole-4-carboxamide], the IC50 is 0.795 µM.

Turning to `CC(C)Nc1cc(Nc2ccc3ncsc3c2)ncc1-c1nnc[nH]1` [Example 1, N2-(benzo[d]thiazol-6-yl)-N4-isopropyl-5-(4H-1,2,4-triazol-3-yl)pyridine-2,4-diamine], the IC50 is 0.0253 µM.

The values above are taken from US8987311B2, “Triazolyl-substituted pyridyl compounds useful as kinase inhibitors” (Bristol-Myers Squibb Company, priority 2012, dated 2015).
